Measurements from ChEMBL document CHEMBL5608182, “Synthesis and evaluation of neuroactive steroids with novel pharmacophore at C-21 let identify a compound with advantageous PK profile and higher EC50 and Emax as PAM on GABAA receptor” (Eur J Med Chem, 2024).

Experiments:
[1] = target: GABA-A receptor; alpha-1/beta-2/gamma-2 (Homo sapiens) (UniProt P14867+P47870+P18507); assay: (§1) Positive allosteric modulation of synaptic alpha1beta2gamma2 GABA-A receptor (unknown origin) transfected in LTK cells assessed as potentiation of GABA-induced peak current amplitude by measuring maximal efficacy at 0.01 to 10 uM at -80 mV holding potential preincubated for 30 secs followed by GABA stimulation for 2 secs by Q-patch assay relative to control; type: cell-based; conditions: filed as positive allosteric modulator, dose 0.01-10 µM, time 32.0 sec
[2] = target: Gamma-aminobutyric acid receptor subunit alpha-4/beta3/delta (Homo sapiens, UniProt O14764+P28472+P48169); assay: Positive allosteric modulation of extrasynaptic alpha4beta3delta GABA-A receptor (unknown origin) transfected in CHO cells assessed as potentiation of GABA-induced peak current amplitude at -80 mV holding potential preincubated for 30 secs followed by GABA stimulation for 2 secs by manual patch assay; type: cell-based
Sequence of Gamma-aminobutyric acid receptor subunit alpha-4/beta3/delta (P28472 whole entry): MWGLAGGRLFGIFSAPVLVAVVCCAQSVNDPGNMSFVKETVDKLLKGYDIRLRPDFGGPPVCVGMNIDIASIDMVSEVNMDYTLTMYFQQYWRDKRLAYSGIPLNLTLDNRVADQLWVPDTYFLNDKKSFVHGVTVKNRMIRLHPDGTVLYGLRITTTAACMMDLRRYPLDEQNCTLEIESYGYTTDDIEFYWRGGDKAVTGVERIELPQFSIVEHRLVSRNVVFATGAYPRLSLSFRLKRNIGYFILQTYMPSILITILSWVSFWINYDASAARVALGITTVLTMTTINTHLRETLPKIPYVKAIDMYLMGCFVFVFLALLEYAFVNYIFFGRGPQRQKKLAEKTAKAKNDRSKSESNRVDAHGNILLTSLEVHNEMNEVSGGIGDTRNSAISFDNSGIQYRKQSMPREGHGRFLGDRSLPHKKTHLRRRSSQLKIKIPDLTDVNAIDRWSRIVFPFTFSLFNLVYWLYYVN
Sequence of Gamma-aminobutyric acid receptor subunit alpha-4/beta3/delta (P48169 whole entry): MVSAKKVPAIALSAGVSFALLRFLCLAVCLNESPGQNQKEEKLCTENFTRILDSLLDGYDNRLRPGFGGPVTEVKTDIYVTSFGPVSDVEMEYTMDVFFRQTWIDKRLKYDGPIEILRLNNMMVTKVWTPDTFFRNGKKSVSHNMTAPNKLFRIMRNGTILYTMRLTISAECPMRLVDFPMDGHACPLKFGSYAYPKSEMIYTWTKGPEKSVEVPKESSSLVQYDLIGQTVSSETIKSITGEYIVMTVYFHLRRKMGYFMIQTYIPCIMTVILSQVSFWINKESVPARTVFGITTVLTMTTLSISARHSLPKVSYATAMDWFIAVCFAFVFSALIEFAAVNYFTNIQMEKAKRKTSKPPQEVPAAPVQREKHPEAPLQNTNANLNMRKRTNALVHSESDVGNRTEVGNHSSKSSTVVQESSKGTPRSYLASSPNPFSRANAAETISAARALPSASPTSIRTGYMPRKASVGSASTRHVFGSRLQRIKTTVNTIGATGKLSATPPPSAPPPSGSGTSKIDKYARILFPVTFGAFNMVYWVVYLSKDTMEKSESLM
Sequence of Gamma-aminobutyric acid receptor subunit alpha-4/beta3/delta (O14764 whole entry): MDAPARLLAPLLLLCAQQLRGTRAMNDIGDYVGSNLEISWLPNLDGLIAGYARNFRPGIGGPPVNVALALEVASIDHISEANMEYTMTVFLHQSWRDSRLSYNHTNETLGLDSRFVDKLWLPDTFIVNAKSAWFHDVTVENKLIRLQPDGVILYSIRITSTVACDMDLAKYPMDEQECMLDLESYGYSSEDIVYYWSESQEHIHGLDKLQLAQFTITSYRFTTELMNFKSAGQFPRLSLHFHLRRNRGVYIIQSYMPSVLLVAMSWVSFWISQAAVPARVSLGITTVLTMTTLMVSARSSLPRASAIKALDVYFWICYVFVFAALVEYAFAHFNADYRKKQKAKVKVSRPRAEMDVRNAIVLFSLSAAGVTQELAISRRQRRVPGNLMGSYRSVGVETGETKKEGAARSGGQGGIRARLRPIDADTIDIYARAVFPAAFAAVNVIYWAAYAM

[3] = target: T1, GABA-A receptor; alpha-1/beta-2/gamma-2 (Homo sapiens, UniProt P14867+P18507+P47870); assay: Positive allosteric modulation of synaptic alpha1beta2gamma2 GABA-A receptor (unknown origin) transfected in LTK cells assessed as potentiation of GABA-induced peak current amplitude at -80 mV holding potential preincubated for 30 secs followed by GABA stimulation for 2 secs by Q-patch assay; type: cell-based
T1 sequence (P14867 whole entry): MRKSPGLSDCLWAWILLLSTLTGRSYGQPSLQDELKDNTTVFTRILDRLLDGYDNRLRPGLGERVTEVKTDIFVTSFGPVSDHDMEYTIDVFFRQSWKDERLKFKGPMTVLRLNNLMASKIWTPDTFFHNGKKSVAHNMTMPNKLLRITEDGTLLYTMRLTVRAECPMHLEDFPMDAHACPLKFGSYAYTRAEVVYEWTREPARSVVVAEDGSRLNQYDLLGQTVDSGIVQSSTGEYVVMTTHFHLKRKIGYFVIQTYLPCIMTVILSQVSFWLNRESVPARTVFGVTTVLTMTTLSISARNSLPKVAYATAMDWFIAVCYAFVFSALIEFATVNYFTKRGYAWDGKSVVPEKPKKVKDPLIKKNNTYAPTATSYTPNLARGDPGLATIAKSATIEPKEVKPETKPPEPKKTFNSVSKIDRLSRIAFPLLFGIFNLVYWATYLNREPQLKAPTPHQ
T1 sequence (P47870 whole entry): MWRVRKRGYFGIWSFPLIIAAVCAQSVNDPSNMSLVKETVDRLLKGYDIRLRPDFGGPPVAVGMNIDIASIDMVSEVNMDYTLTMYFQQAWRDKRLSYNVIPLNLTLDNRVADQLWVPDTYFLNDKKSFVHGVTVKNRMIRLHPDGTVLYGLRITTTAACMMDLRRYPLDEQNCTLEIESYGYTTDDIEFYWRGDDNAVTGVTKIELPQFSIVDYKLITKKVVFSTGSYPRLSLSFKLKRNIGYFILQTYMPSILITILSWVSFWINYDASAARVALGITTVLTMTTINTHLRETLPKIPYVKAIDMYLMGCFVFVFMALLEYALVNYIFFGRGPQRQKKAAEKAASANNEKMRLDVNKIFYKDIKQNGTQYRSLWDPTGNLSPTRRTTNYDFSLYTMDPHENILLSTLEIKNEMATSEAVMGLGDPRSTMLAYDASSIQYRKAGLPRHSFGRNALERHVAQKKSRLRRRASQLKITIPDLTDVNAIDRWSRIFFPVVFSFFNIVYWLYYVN
T1 sequence (P18507 whole entry): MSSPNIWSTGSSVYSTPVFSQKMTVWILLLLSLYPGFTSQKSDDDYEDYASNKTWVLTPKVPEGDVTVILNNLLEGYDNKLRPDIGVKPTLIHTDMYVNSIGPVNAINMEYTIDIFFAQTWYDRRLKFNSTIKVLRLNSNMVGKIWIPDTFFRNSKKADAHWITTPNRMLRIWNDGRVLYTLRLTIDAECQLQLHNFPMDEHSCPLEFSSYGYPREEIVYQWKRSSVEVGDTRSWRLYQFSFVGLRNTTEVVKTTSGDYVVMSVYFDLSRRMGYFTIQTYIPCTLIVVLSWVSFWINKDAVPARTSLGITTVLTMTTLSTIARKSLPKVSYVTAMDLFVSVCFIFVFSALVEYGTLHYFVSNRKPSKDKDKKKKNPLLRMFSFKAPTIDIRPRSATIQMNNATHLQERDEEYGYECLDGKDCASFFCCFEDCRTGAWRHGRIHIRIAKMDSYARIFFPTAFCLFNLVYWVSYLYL

[4] = target: Gamma-aminobutyric acid receptor subunit alpha-4/beta3/delta (Homo sapiens) (UniProt P28472+P48169+O14764); assay: as §1, with “extrasynaptic alpha4beta3delta” for “synaptic alpha1beta2gamma2”, “CHO” for “LTK”, “manual patch” for “Q-patch”; type: cell-based; conditions: filed as positive allosteric modulator, dose 0.01-10 µM, time 32.0 sec
[5] = target: GABA-A receptor; anion channel; assay: Inhibition of [35S]TBPS binding to GABA-A receptor in Sprague-Dawley rat brain cortical membrane incubated for 90 mins by liquid scintillation spectrometry; type: cell membranes, Cortex
[6] = Metabolic stability in human liver microsomes assessed as compound remaining at 1 uM preincubated for 10 mins followed by NADPH addition by LC-MS analysis; type: ADME, Microsome; conditions: read-out: Stability
[7] = Metabolic stability in Sprague-Dawley rat liver microsomes assessed as intrinsic clearance at 1 uM preincubated for 10 mins followed by NADPH addition by LC-MS analysis; type: ADME, Microsome; conditions: read-out: CLH
[8] = Metabolic stability in Sprague-Dawley rat liver microsomes assessed as compound remaining at 1 uM preincubated for 10 mins followed by NADPH addition by LC-MS analysis; type: ADME, Microsome; conditions: read-out: Stability
[9] = Metabolic stability in human liver microsomes assessed as intrinsic clearance at 1 uM preincubated for 10 mins followed by NADPH addition by LC-MS analysis; type: ADME, Microsome; conditions: read-out: CLH

Work on `C[C@@]1(O)CC[C@H]2[C@H](CC[C@@H]3[C@@H]2CC[C@]2(C)[C@@H](C(=O)Cn4cnn(-c5cccc(F)n5)c4=O)CC[C@@H]32)C1` yielded an Emax [1] of 724%, an EC50 [2] of 0.36 µM and an EC50 [3] of 0.368 µM. The Emax [4] was 966%.

With `C[C@@]1(O)CC[C@H]2[C@H](CC[C@@H]3[C@@H]2CC[C@]2(C)[C@@H](C(=O)Cn4cnn(-c5cc(F)ccc5F)c4=O)CC[C@@H]32)C1` the Emax [1] was 347%, the EC50 [2] was 0.079 µM and the EC50 [3] was 0.34 µM. The Emax [4] was 743%.

For `C[C@@]1(O)CC[C@H]2[C@H](CC[C@@H]3[C@@H]2CC[C@]2(C)[C@@H](C(=O)Cn4cnn(-c5ccc6c(c5)OCO6)c4=O)CC[C@@H]32)C1`, the Emax [1] was 387%, the EC50 [2] was 0.266 µM and the EC50 [3] was 0.139 µM. It also gave an Emax [4] of 1200%.

Work on `C[C@@]1(O)CC[C@H]2[C@H](CC[C@@H]3[C@@H]2CC[C@]2(C)[C@@H](C(=O)Cn4cnn(-c5ccccc5F)c4=O)CC[C@@H]32)C1` yielded an Emax [1] of 710%, an EC50 [2] of 0.107 µM and an EC50 [3] of 0.171 µM. It also gave an Emax [4] of 541%.

With `C[C@@]1(O)CC[C@H]2[C@H](CC[C@@H]3[C@@H]2CC[C@]2(C)[C@@H](C(=O)Cn4cnn(-c5cncc(F)c5)c4=O)CC[C@@H]32)C1` the Emax [1] was 618%, the EC50 [2] was 0.15 µM and the EC50 [3] was 0.145 µM. For the same compound, the Emax [4] was 601%.

For `C[C@@]1(O)CC[C@H]2[C@H](CC[C@@H]3[C@@H]2CC[C@]2(C)[C@@H](C(=O)Cn4ccn(-c5cccc(F)c5)c4=O)CC[C@@H]32)C1`, the Emax [1] was 594%, the EC50 [2] was 0.139 µM and the EC50 [3] was 0.241 µM. It also gave an IC50 [5] of 0.001 µM and an Emax [4] of 552%.

With `CCn1ncn(CC(=O)[C@H]2CC[C@H]3[C@@H]4CC[C@@H]5C[C@](C)(O)CC[C@@H]5[C@H]4CC[C@]23C)c1=O` the Emax [1] was 632%, the EC50 [2] was 0.27 µM and the EC50 [3] was 0.19 µM. The Emax [4] was 526%.

`C[C@@]1(O)CC[C@H]2[C@H](CC[C@@H]3[C@@H]2CC[C@]2(C)[C@@H](C(=O)Cn4cnn(-c5cc(F)cc(F)c5)c4=O)CC[C@@H]32)C1` showed an Emax [1] of 1040%, an EC50 [2] of 0.035 µM and an EC50 [3] of 0.154 µM. The Emax [4] was 441%.

Compound `C[C@@]1(O)CC[C@H]2[C@H](CC[C@@H]3[C@@H]2CC[C@]2(C)[C@@H](C(=O)Cn4cnn(-c5nccs5)c4=O)CC[C@@H]32)C1` has an Emax [1] of 763%, an EC50 [2] of 0.126 µM and an EC50 [3] of 0.33 µM. It also gave an Emax [4] of 633%.

Compound `C[C@@]1(O)CC[C@H]2[C@H](CC[C@@H]3[C@@H]2CC[C@]2(C)[C@@H](C(=O)Cn4cnn(-c5cccc(N)c5)c4=O)CC[C@@H]32)C1` has an Emax [1] of 786%, an EC50 [2] of 0.213 µM and an EC50 [3] of 0.349 µM. The Emax [4] was 1070%.

`C[C@@]1(O)CC[C@H]2[C@H](CC[C@@H]3[C@@H]2CC[C@]2(C)[C@@H](C(=O)Cn4cnn(CC(F)(F)F)c4=O)CC[C@@H]32)C1` gave an Emax [1] of 378%, an EC50 [2] of 1.24 µM and an EC50 [3] of 0.548 µM. For the same compound, the Emax [4] was 1280%.

In the case of `C[C@@]1(O)CC[C@H]2[C@H](CC[C@@H]3[C@@H]2CC[C@]2(C)[C@@H](C(=O)Cn4cnn(-c5cc(F)ccn5)c4=O)CC[C@@H]32)C1`, the Emax [1] is reported as 446%, the EC50 [2] is reported as 0.068 µM and the EC50 [3] is reported as 0.34 µM. The Emax [4] was 720%.

In the case of `C[C@@]1(O)CC[C@H]2[C@H](CC[C@@H]3[C@@H]2CC[C@]2(C)[C@@H](C(=O)Cn4cnn(CC5CC5)c4=O)CC[C@@H]32)C1`, the Emax [1] is reported as 727%, the remaining at 1 µM [6] is reported as 26.4% and the CLint scaled at 1 µM [7] is reported as 16.8 L/h/kg. For the same compound, the EC50 [2] was 0.122 µM, the remaining at 1 µM [8] was 5.9% and the EC50 [3] was 0.163 µM. It also gave an Emax [4] of 931% and a CLint scaled at 1 µM [9] of 2.28 L/h/kg.
